From paper PMC6201879, “N-substituted phenylbenzamides of the niclosamide chemotype attenuate obesity related changes in high fat diet fed mice” (PLoS ONE, 2018)
Like-named read-outs stand apart in the source and are kept apart here.

How the values were obtained:
[1] = test system: Salmonella typhimurium TA1535
[2] = test system: Salmonella typhimurium TA1537
[3] = test system: Escherichia coli WP2 uvrA (pKM101)
[4] = test system: PH5CH8 liver cells; experiment: High-throughput hepatic de novo lipogenesis (DNL) assay, high content imaging of steatotic phenotype; format: cell-based, human
[5] = test system: HEK293 cells stably transduced with the human OCT3 transporter; experiment: Cellular oxygen consumption rate (OCR), MitoXpress Xtra; format: cell-based; settings: HEK293 cells expressing human OCT3
Method: Oxygen consumption rate experiments were performed by ZenBio, Inc (RTP, NC). HEK293 cells stably transduced with the human OCT3 transporter were plated in black-walled microclear plates (Greiner-BioOne) at 60,000 cells per well in growth medium. Cells were incubated overnight to allow attachment before growth medium was removed and replaced with 150μL of assay medium containing compound dilutions. Four concentrations of each compound were prepared and transferred to the empty wells. Control wells contained assay medium only or assay medium containing […] (FCCP) at 1μM. Ten μL of MitoXpress Xtra reagent was added to each test well and 100μL of pre-warmed mineral oil was overlaid in each well to create a seal. The plates were immediately read on a FLUOstar Omega (BMG) using dual read Time Resolved Fluorescence (TR-F) for 2 hours, with measurements taken every 2 minutes using 340nm and 650nm as excitation and emission wavelengths respectively. For lifetime analysis, two measurements per well were taken: 1) delay of 30μs, with a window of 30μs; and 2) delay of 70μs with a window of 30μs. Background TRF values were subtracted from all readings. A ratiometric analysis was performed to determine changes in the Lifetime fluorescence signal: Lifetime (μs)[T] = (D2-D1)/ln(W1/W2), where D is delay; W is fluorescence window value at each time point. Lifetime slopes were calculated using each Lifetime measurement over time. Data are presented as mean ± standard error (SE). The differences between the control (DMSO) and compound treated wells were analyzed using the Student’s t-test. A value of p≤0.05 was considered statistically significant. […]

[6] = test system: C57-diet induced obesity (DIO) mouse; experiment: Glucose tolerance test in DIO mice; format: in vivo; settings: 5mg/kg for 7 days
Method: Animals were then treated with 5mg/kg niclosamide or vehicle for 7 days and GTT was performed again.
Glucose tolerance test in DIO mice. 2g/kg of glucose was injected IP and at 15, 30 and 60 min, blood glucose levels were measured.

[7] = test system: Salmonella typhimurium TA100; settings: for Mean Revertant Colony Counts TA-100 SP9+: with S9
[8] = test system: carbonic anhydrase-III (CAIII); settings: HFD fed-DIO mice; cited from earlier work
[9] = design: method as in PMID 26245118; settings: cited from earlier work
[10] = cited from earlier work
[11] = test system: Salmonella typhimurium TA98; experiment: Ames assay, strain TA98; settings: for Mean Revertant Colony Counts TA98 SP9+: with S9
[12] = test system: Escherichia coli WP2 uvrA (pKM101); experiment: Ames assay, strain WP2 uvrA (pKM101); settings: for Mean Revertant Colony Counts WP2 uvrA (pKM101) SP9+: with S9; for Mean Revertant Colony Counts WP2 uvrA (pKM101) S9-: without S9
[13] = test system: p-AMPK Thr-172; experiment: Western blot of p-AMPK Thr-172 in liver of HFD-fed mice; settings: HFD-fed mice; 5 or 25mg/kg IP daily for 12 days
[14] = test system: Salmonella typhimurium (TA98, TA100, TA1535 and TA1537) and Escherichia coli (WP2 uvrA (pKM101)); experiment: Ames assay, overall outcome and cytotoxicity across strains
[15] = test system: fatty acid synthase (FAS); experiment: Western blot of fatty acid synthase in liver of HFD-fed mice; settings: HFD-fed mice; highest concentration (25mg/kg) IP daily for 12 days
[16] = any concentration tested, vs negative control

## Nc1ccc2cc3ccccc3cc2c1 [Compound 2-AA, 2-Aminoanthracene, reference compound]
[1]; Salmonella typhimurium
  Mean Revertant Colony Counts TA-1535 SP9+: 24.0
[2]; Salmonella typhimurium
  Mean Revertant Colony Counts TA-1537 SP9+: 11.0
[3]
  Mean Revertant Colony Counts WP2 uvrA (pKM101) SP9+: 345.3

## O=C(Nc1ccc([N+](=O)[O-])cc1Cl)c1cc(Cl)ccc1O [Niclosamide]
[4]; Homo sapiens, PH5CH8 liver cells, 10-point dose response between 1μM and 1.9nM, read-out: IC50 (uM), inhibition of steatotic phenotype in DNL assay
  IC50: 0.02 µM
[4]; PH5CH8, assay validation
  reduced steatosis (steatotic phenotype in DNL assay): 77 ±12%
[5]; compared to DMSO control, 2 hours
  change in respiration / oxygen consumption rate (OCR): increased OCR
[5]; four concentrations
  concentration dependence of OCR change: dose dependent increase in OCR
[6]; 2g/kg glucose IP
  blood glucose levels at 60 minutes, glucose tolerance test: 250 mg/dL
[6]; pre-treatment approximately 400mg/dL
  plasma glucose levels after the 7-day treatment period: ~275 mg/dL
[7]; 1.5 ug/Well
  Mean Revertant Colony Counts TA-100 SP9+: 19.3
[7]; 1.5 ug/Well, without S9
  Mean Revertant Colony Counts TA-100 S9-: 9.3
[7]; 4 ug/Well
  Mean Revertant Colony Counts TA-100 SP9+: 36.7
[7]; 10 ug/Well
  Mean Revertant Colony Counts TA-100 SP9+: 23.3
[7]; 25 ug/Well
  Mean Revertant Colony Counts TA-100 SP9+: 2.3
[7]; [16]
  fold increase in the mean number of revertant colonies, TA100: < 2 fold
[1]; 1.5 ug/Well, with S9
  Mean Revertant Colony Counts TA-1535 SP9+: 3.3
[1]; 4 ug/Well, with S9
  Mean Revertant Colony Counts TA-1535 SP9+: 3.7
[1]; [16]
  fold increase in the mean number of revertant colonies, TA1535: < 3 fold
[2]; 1.5 ug/Well, with S9
  Mean Revertant Colony Counts TA-1537 SP9+: 1.7
[2]; 4 ug/Well, with S9
  Mean Revertant Colony Counts TA-1537 SP9+: 2.0
[2]; 10 ug/Well, with S9
  Mean Revertant Colony Counts TA-1537 SP9+: 0.7
[2]; [16]
  fold increase in the mean number of revertant colonies, TA1537: < 3 fold
[8]
  carbonic anhydrase-III (CAIII) hepatic protein: down regulated
[9]
  half-life: 6.7 h
[10]; 5mg/kg oral dose in rats
  peak plasma concentration (Cmax): 354 ng/mL
[10]; rat, in vivo, po, 5 mg/kg
  half-life: 6.7 h
[11]; 1.5 ug/Well
  Mean Revertant Colony Counts TA98 SP9+: 52.0
[11]; 1.5 ug/Well, without S9
  Mean Revertant Colony Counts TA98 S9-: 1.5
[11]; 4 ug/Well
  Mean Revertant Colony Counts TA98 SP9+: 108.3
[11]; 10 ug/Well
  Mean Revertant Colony Counts TA98 SP9+: 194.7
[11]; 1.5, 4 and 10 μg/well in the presence of S9 mix
  fold increase in the mean number of revertant colonies, TA98: ≥ 2 fold
[12]; 1.5 ug/Well
  Mean Revertant Colony Counts WP2 uvrA (pKM101) SP9+: 36.7
  Mean Revertant Colony Counts WP2 uvrA (pKM101) S9-: 17.3
[12]; 4 ug/Well
  Mean Revertant Colony Counts WP2 uvrA (pKM101) SP9+: 44.0
  Mean Revertant Colony Counts WP2 uvrA (pKM101) S9-: 20.7
[12]; 10 ug/Well
  Mean Revertant Colony Counts WP2 uvrA (pKM101) SP9+: 34.0
  Mean Revertant Colony Counts WP2 uvrA (pKM101) S9-: 19.3
[12]; 25 ug/Well
  Mean Revertant Colony Counts WP2 uvrA (pKM101) SP9+: 31.7
  Mean Revertant Colony Counts WP2 uvrA (pKM101) S9-: 14.7
[12]; 64 ug/Well
  Mean Revertant Colony Counts WP2 uvrA (pKM101) SP9+: 27.0
  Mean Revertant Colony Counts WP2 uvrA (pKM101) S9-: 22.7
[12]; 160 ug/Well
  Mean Revertant Colony Counts WP2 uvrA (pKM101) SP9+: 24.7
  Mean Revertant Colony Counts WP2 uvrA (pKM101) S9-: 17.7
[12]; 400 ug/Well
  Mean Revertant Colony Counts WP2 uvrA (pKM101) SP9+: 14.7
  Mean Revertant Colony Counts WP2 uvrA (pKM101) S9-: 17.7
[12]; 1000 ug/Well
  Mean Revertant Colony Counts WP2 uvrA (pKM101) SP9+: 14.7
  Mean Revertant Colony Counts WP2 uvrA (pKM101) S9-: 14.0
[12]; [16]
  fold increase in the mean number of revertant colonies, WP2 uvrA (pKM101): < 2 fold
[12]; both in the presence and absence of S9 mix
  concentration with significant cytotoxicity, WP2 uvrA (pKM101): ≥ 400 μg /well
[13]
  p-AMPK Thr-172 in liver: significantly upregulated
[14]
  Ames assay outcome (mutagenicity): positive
[14]; in the absence of the S9 mix
  concentration with significant cytotoxicity, strains TA98, TA100, TA1535 and TA1537: ≥ 1.5 μg /well
[14]; in the presence of S9 mix
  concentration with significant cytotoxicity, strains TA98, TA100, TA1535 and TA1537: ≥ 10 μg /well
[15]
  expression of fatty acid synthase (FAS) in liver: significant reduction
